# Biological target: T1, human 5-hydroxytryptamine-2C (h5-HT2C) receptor (Homo sapiens, UniProt P28335)
# T1 construct: expressed in transfected cells; host or cells: CHO (Chinese Hamster Ovary) cells; membranes
# T1 sequence (P28335 33-458): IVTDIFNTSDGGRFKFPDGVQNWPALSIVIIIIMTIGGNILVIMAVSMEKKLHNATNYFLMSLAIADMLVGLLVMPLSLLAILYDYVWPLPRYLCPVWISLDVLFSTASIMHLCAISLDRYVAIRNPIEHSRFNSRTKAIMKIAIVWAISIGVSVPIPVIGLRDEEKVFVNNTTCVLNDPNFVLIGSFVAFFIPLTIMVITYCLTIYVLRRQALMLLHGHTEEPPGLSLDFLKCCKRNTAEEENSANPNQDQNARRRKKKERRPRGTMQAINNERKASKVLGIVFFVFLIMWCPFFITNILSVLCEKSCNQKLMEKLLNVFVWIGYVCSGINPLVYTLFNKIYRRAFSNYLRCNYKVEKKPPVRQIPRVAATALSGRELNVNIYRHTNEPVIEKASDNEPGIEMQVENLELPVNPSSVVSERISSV
# Test: [125I]DOI binding to membranes of CHO cells expressing the human 5-HT2C receptor
# Conditions: [125I]DOI radioligand, CHO cell membranes, room temperature 60 min; read-out: 5-HT2C Affinity Ki
row,Compound,Ki [nM]
1,"NCC1Cc2cccc(/C=C/c3ccccc3)c2O1 (racemic) [Example 119, (±)-1-{7-[(E)-2-phenylvinyl]-2,3-dihydro-1-benzofuran-2-yl}methanamine]",78
2,"NCC1Cc2cccc(-c3ccccc3)c2O1 (racemic) [Example 36, (±)-1-(7-phenyl-2,3-dihydro-1-benzofuran-2-yl)methanamine]",15
3,"CNCC1Cc2cc(-c3ccccc3)cc(-c3cccc(C)c3)c2O1 (racemic) [Example 512, (±)-{[7-(3-methylphenyl)-5-phenyl-2,3-dihydro-1-benzofuran-2-yl]methyl}methylamine]",810
4,"CNCC1Cc2cc(-c3ccccc3)cc(-c3ccccc3OC)c2O1 (racemic) [Example 514, (±)-{[7-(2-methoxyphenyl)-5-phenyl-2,3-dihydro-1-benzofuran-2-yl]methyl}methylamine]",242
5,"NCC1Cc2cccc(-c3cc4ccccc4o3)c2O1 (racemic) [Example 40, (±)-1-(2′,3′-dihydro-2,7′-bi-1-benzofuran-2′-yl)methanamine]",122
6,"CNCC1Cc2cc(OC)cc(-c3ccc(F)c(Cl)c3)c2O1 (racemic) [Example 503, (±)-{[7-(3-chloro-4-fluorophenyl)-5-methoxy-2,3-dihydro-1-benzofuran-2-yl]methyl}methylamine]",78
7,"NCC1Cc2cccc(Cc3ccccc3)c2O1 (racemic) [Example 15, (±)-1-(7-benzyl-2,3-dihydro-1-benzofuran-2-yl)methanamine]",222
8,"CNCC1Cc2cc(-c3ccccc3)cc(-c3cccc(OC)c3)c2O1 (racemic) [Example 515, (±)-{[7-(3-methoxyphenyl)-5-phenyl-2,3-dihydro-1-benzofuran-2-yl]methyl}methylamine]",965
9,"NCC1Cc2cccc(-c3cccc4ccccc34)c2O1 (racemic) [Example 33, (±)-1-[7-(1-naphthyl)-2,3-dihydro-1-benzofuran-2-yl]methanamine]",32

# Next, values leading:
row,Ki [nM],Compound
1,316,"CNCC1Cc2cc(-c3ccc(C(F)(F)F)cc3)cc(F)c2O1 (racemic) [Example 541, (±)-{7-fluoro-5-[4-(trifluoromethyl)phenyl]-2,3-dihydro-1-benzofuran-2-yl}methyl)methylamine]"
2,1580,"NCC1Cc2cc(-c3ccc(C(F)(F)F)cc3)cc(F)c2O1 (racemic) [Example 388, (±)-({7-fluoro-5-[4-(trifluoromethyl)phenyl]-2,3-dihydro-1-benzofuran-2-yl}methyl)amine]"
3,1090,"CNCC1Cc2cc(-c3ccccc3C)cc(F)c2O1 (racemic) [Example 528, (±)-{[7-fluoro-5-(2-methylphenyl)-2,3-dihydro-1-benzofuran-2-yl]methyl}methylamine]"
4,801,"NCC1Cc2cc(-c3cccc(Cl)c3)cc(F)c2O1 (racemic) [Example 382, (±)-{[7-fluoro-5-(3-chlorophenyl)-2,3-dihydro-1-benzofuran-2-yl]methyl}amine]"
5,1550,"NCC1Cc2cc(-c3ccc(F)cc3)cc(F)c2O1 (racemic) [Example 387, (±)-{[7-fluoro-5-(4-fluorophenyl)-2,3-dihydro-1-benzofuran-2-yl]methyl}amine]"
6,1020,"NCC1Cc2cc(-c3ccc(Cl)cc3)cc(F)c2O1 (racemic) [Example 386, (±)-{[7-fluoro-5-(4-chlorophenyl)-2,3-dihydro-1-benzofuran-2-yl]methyl}amine]"
7,141,"NCC1Cc2cccc(-c3cc(Cl)cc(Cl)c3)c2O1 (racemic) [Example 35, (±)-1-[7-(3,5-dichlorophenyl)-2,3-dihydro-1-benzofuran-2-yl]methanamine]"
8,131,"NCC1Cc2cccc(-c3cccc(C(F)(F)F)c3)c2O1 (single isomer, unassigned; (-)) [Example 135, (−)-1-{7-[3-(trifluoromethyl)phenyl]-2,3-dihydro-1-benzofuran-2-yl}methanamine]"

# — patent US7435837B2, “Dihydrobenzofuranyl alkanamine derivatives and methods for using same” (Wyeth, priority 2003, dated 2008)
